Data reported in US12091385B2, “Pyridinylcyanoguanidine derivative and use thereof” (Rushi Biotech (Hangzhou) Co., Ltd, priority 2021, dated 2024).

Tests used:
Assay type in all cases: cell-based
[1] = system: Human lung adenocarcinoma cell A549; experiment: CCK-8 cell proliferation assay, A549; conditions: A549 cells, 72 hrs with drug, CCK-8, OD 450 nm
Experimental: (§1) The effect of samples on the proliferation of human tumor cells in vitro was determined by CCK-8 cell proliferation assay.
(§2) The cells were assayed through a method including the following steps: • 1) The cells were digested, counted, and prepared into a cell suspension in a corresponding culture medium (Table 1) (5×10^4 cells/ml for CFPAC-1 and RPMI 8226, and 3.5×10^4 cells/ml for rest cells). The cell suspension was added to each well of a 96-well plate in 100 μl/well. • 2) Then the 96-well plate was incubated for 24 hrs in an incubator at 37° C. and 5% CO2. • 3) The drug was diluted with the culture medium to the required working concentration. 100 μl of the corresponding drug containing medium was added to each well.

[2] = system: Human hepatoma cell HepG2; experiment: CCK-8 cell proliferation assay, HepG2; conditions: HepG2 cells, 72 hrs with drug, CCK-8, OD 450 nm
Experimental: as §1, §2

[3] = system: Human esophageal cancer cell TE-1; experiment: CCK-8 cell proliferation assay, TE-1; conditions: TE-1 cells, 72 hrs with drug, CCK-8, OD 450 nm
Experimental: as §1, §2

[4] = system: Human gastric cancer cell MKN45; experiment: CCK-8 cell proliferation assay, MKN45; conditions: MKN-45 cells, 72 hrs with drug, CCK-8, OD 450 nm
Experimental: as §1, §2

[5] = system: Human colon cancer cell HCT-116; experiment: CCK-8 cell proliferation assay, HCT-116; conditions: HCT116 cells, 72 hrs with drug, CCK-8, OD 450 nm
Experimental: as §1, §2

[6] = system: Human multiple myeloma cell RPMI 8226; experiment: CCK-8 cell proliferation assay, RPMI 8226; conditions: RPMI8226 cells, 72 hrs with drug, CCK-8, OD 450 nm
Experimental: as §1, §2

[7] = system: Human pancreatic cancer cell CFPAC-1; experiment: CCK-8 cell proliferation assay, CFPAC-1; conditions: CFPAC-1 cells, 72 hrs with drug, CCK-8, OD 450 nm
Experimental: as §1, §2

| SMILES | IC50 [1] | IC50 [2] | IC50 [3] | IC50 [4] | IC50 [5] | IC50 [6] | IC50 [7] |
| --- | --- | --- | --- | --- | --- | --- | --- |
| N#CN=C(NCCCCCN1CCN(C(=O)c2cc3ccccc3[nH]2)CC1)Nc1ccncc1 [BSS-PC020, 2-cyano-1-(5-(1-(2-indolylformyl)piperazine-4-yl)pentyl)-3-(4-pyridinyl)guanidine] | 61 nM | 72 nM | 93 nM | 51 nM | 85 nM | 35 nM | 57 nM |
| N#CN=C(NCCCCCN1CCN(C(=O)c2ccccc2)CC1)Nc1ccncc1 [BSS-PC003] | 29 nM | 49 nM | 46 nM | 50 nM | 41 nM | 19 nM | 26 nM |
| N#CN=C(NCCCCCN1CCN(C(=O)c2ccco2)CC1)Nc1ccnc(F)c1 [BSS-PC013] | 48 nM | 93 nM | 57 nM | 72 nM | 101 nM | 28 nM | 38 nM |
| N#CN=C(NCCCCCN1CCN(C(=O)c2ccco2)CC1)Nc1cccnc1 [BSS-PC026, 2-cyano-1-(5-((1-furoyl)piperazine-4-yl)pentyl)-3-(3-pyridinyl)guanidine] | 32 nM | 55 nM | 72 nM | 30 nM | 73 nM | 20 nM | 31 nM |
| COc1cccc(OC)c1C(=O)N1CCN(CCCCCNC(=NC#N)Nc2ccncc2)CC1 [BSS-PC006, 2-cyano-1-(5-(1-(2,6-dimethoxybenzoyl)piperazine-4-yl)pentyl)-3-(4-pyridinyl)guanidine] | 73 nM | 92 nM | 125 nM | 89 nM | 76 nM | 34 nM | 55 nM |
| N#CN=C(NCCCCCN1CCN(C(=O)c2occc2F)CC1)Nc1ccncc1 [BSS-PC023, 2-cyano-1-(5-(1-(3-fluoro-2-furylformyl)piperazine-4-yl)pentyl)-3-(4-pyridinyl)guanidine] | 42 nM | 57 nM | 43 nM | 430 nM | 52 nM | 30 nM | 39 nM |
| N#CN=C(NCCCCCC1CCN(C(=O)c2ccco2)C1)Nc1ccncc1 (stereo not shown) [BSS-PC032, 2-cyano-1-(5-(1-(furoyl)pyrrolidine-3-yl)pentyl)-3-(4-pyridinyl)guanidine] | 26 nM | 68 nM | 57 nM | 61 nM | 52 nM | 29 nM | 25 nM |
| N#CN=C(NCCCCCN1CCN(C(=O)c2ccccc2)CC1)Nc1cccnc1 [BSS-PC019, 2-cyano-1-(5-((1-benzoyl)piperazine-4-yl)pentyl)-3-(3-pyridinyl)guanidine] | 71 nM | 83 nM | 64 nM | 52 nM | 73 nM | 38 nM | 46 nM |
| N#CN=C(NCCCCCN1CCN(C(=O)C2CCCS2)CC1)Nc1ccncc1 (stereo not shown) [BSS-PC009, 2-cyano-1-(5-(1-(2-tetrahydrothienylformyl)piperazine-4-yl)pentyl)-3-(4-pyridinyl)guanidine] | 71 nM | 85 nM | 81 nM | 68 nM | 92 nM | 43 nM | 58 nM |
| N#CN=C(NCCCCCC1CCN(C(=O)c2ccccc2)C1)Nc1ccncc1 (stereo not shown) [BSS-PC028, 2-cyano-1-(5-((1-benzoyl)pyrrolidine-3-yl)pentyl)-3-(4-pyridinyl)guanidine] | 50 nM | 51 nM | 55 nM | 39 nM | 66 nM | 31 nM | 35 nM |
| N#CN=C(NCCCCCC1CCN(C(=O)c2cccs2)C1)Nc1ccncc1 (stereo not shown) [BSS-PC029, 2-cyano-1-(5-(1-(2-thienylformyl)pyrrolidine-3-yl)pentyl)-3-(4-pyridinyl)guanidine] | 35 nM | 64 nM | 66 nM | 36 nM | 52 nM | 19 nM | 34 nM |

Now from value to molecule:

| IC50 [1] | IC50 [2] | IC50 [3] | IC50 [4] | IC50 [5] | IC50 [6] | IC50 [7] | SMILES |
| --- | --- | --- | --- | --- | --- | --- | --- |
| 23 nM | 37 nM | 39 nM | 31 nM | 27 nM | 18 nM | 23 nM | N#CN=C(NCCCCCC1CCN(C(=O)C2CCCS2)C1)Nc1ccncc1 (stereo not shown) [BSS-PC034, 2-cyano-1-(5-(1-(2-tetrahydrothienylformyl)pyrrolidine-3-yl)pentyl)-3-(4-pyridinyl)guanidine] |
| 28 nM | 90 nM | 72 nM | 36 nM | 58 nM | 25 nM | 39 nM | N#CN=C(NCCCCCC1CCN(C(=O)C2CCCO2)C1)Nc1ccncc1 (stereo not shown) [BSS-PC036, 2-cyano-1-(5-(1-(2-tetrahydrofuranformyl)pyrrolidine-3-yl)pentyl)-3-(4-pyridinyl)guanidine] |
| 39 nM | 68 nM | 52 nM | 33 nM | 87 nM | 32 nM | 41 nM | N#CN=C(NCCCCCC1CCN(C(=O)c2sccc2F)C1)Nc1ccncc1 (stereo not shown) [BSS-PC050, 2-cyano-1-(5-(1-(3-fluoro-2-thienylformyl)pyrrolidine-3-yl)pentyl)-3-(4-pyridinyl)guanidine] |
| 37 nM | 99 nM | 112 nM | 39 nM | 92 nM | 20 nM | 37 nM | O=C(/C=C/c1cccnc1)NCCCCC1CCN(C(=O)c2ccccc2)CC1 [FK866, reference compound] |
| 46 nM | 58 nM | 49 nM | 39 nM | 47 nM | 23 nM | 34 nM | N#CN=C(NCCCCCCC1CCN(C(=O)c2ccco2)C1)Nc1cccnc1 (stereo not shown) [BSS-PC062, 2-cyano-1-(6-(1-(furoyl)pyrrolidine-3-yl)hexyl)-3-(3-pyridinyl)guanidine] |
| 32 nM | 86 nM | 79 nM | 41 nM | 33 nM | 27 nM | 16 nM | N#CN=C(NCCCCCC1CCN(C(=O)C2CCCN2)C1)Nc1ccncc1 (stereo not shown) [BSS-PC035, 2-cyano-1-(5-(1-(2-pyrrolidinylformyl)pyrrolidine-3-yl)pentyl)-3-(4-pyridinyl)guanidine] |
| 57 nM | 122 nM | 103 nM | 65 nM | 87 nM | 33 nM | 45 nM | N#CN=C(NCCCCCCC1CCN(C(=O)c2ccc[nH]2)C1)Nc1cccnc1 (stereo not shown) [BSS-PC061, 2-cyano-1-(6-(1-(2-pyrrolylformyl)pyrrolidine-3-yl)hexyl)-3-(3-pyridinyl)guanidine] |
| 41 nM | 42 nM | 34 nM | 53 nM | 40 nM | 20 nM | 38 nM | N#CN=C(NCCCCCC1CCN(C(=O)c2ccccc2)C1)Nc1cccnc1 (stereo not shown) [BSS-PC044, 2-cyano-1-(5-((1-benzoyl)pyrrolidine-3-yl)pentyl)-3-(3-pyridinyl)guanidine] |
| 79 nM | 117 nM | 90 nM | 58 nM | 86 nM | 52 nM | 64 nM | N#CN=C(NCCCCCC1CCN(C(=O)c2cc3ccccc3[nH]2)C1)Nc1ccncc1 (stereo not shown) [BSS-PC045, 2-cyano-1-(5-(1-(2-indolylformyl)pyrrolidine-3-yl)pentyl)-3-(4-pyridinyl)guanidine] |
| 75 nM | 153 nM | 106 nM | 65 nM | 72 nM | 49 nM | 61 nM | N#CN=C(NCCCCCCC1CCN(C(=O)c2cc3ccccc3[nH]2)C1)Nc1ccncc1 (stereo not shown) [BSS-PC071, 2-cyano-1-(6-(1-(2-indolylformyl)pyrrolidine-3-yl)hexyl)-3-(4-pyridinyl)guanidine] |
| 33 nM | 42 nM | 46 nM | 45 nM | 53 nM | 26 nM | 29 nM | N#CN=C(NCCCCCCC1CCN(C(=O)c2ccco2)C1)Nc1cc(F)nc(F)c1 (stereo not shown) [BSS-PC076] |
| 66 nM | 83 nM | 62 nM | 64 nM | 75 nM | 42 nM | 51 nM | N#CN=C(NCCCCCCC1CCN(C(=O)c2ccco2)C1)Nc1cc(Cl)nc(Cl)c1 (stereo not shown) [BSS-PC080] |
| 51 nM | 42 nM | 40 nM | 31 nM | 39 nM | 27 nM | 33 nM | N#CN=C(NCCCCCC1CCN(C(=O)c2ccco2)C1)Nc1cccnc1 (stereo not shown) [BSS-PC051] |
| 25 nM | 31 nM | 30 nM | 34 nM | 43 nM | 22 nM | 22 nM | N#CN=C(NCCCCCCC1CCN(C(=O)c2cccs2)C1)Nc1ccncc1 (stereo not shown) [BSS-PC053, 2-cyano-1-(6-(1-(2-thienylformyl)pyrrolidine-3-yl)hexyl)-3-(4-pyridinyl)guanidine] |
